Results as given in patent US20060069132A1, “Azolecarboxamide herbicides” (priority 2004, published 2006).

How the values were obtained:
[1] = system: barnyardgrass; assay: Test B pre-/postemergence herbicide test; assay type: in vivo, Echinochloa crus-galli; conditions: for Barnyardgrass plant response rating: postemergence, visual rating, scale 0 (no effect) to 100 (complete control)
In short: (§1)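 Plants compared with untreated controls 13–15 days post-treatment and given a visual 0–100 injury score. Applications: preemergence to seeds; postemergence at 1- to 4-leaf (2–18 cm); paddy species flooded, 2-leaf stage. Vehicle non-phytotoxic, surfactant included.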

[2] = system: Surinam grass; assay: Test B pre-/postemergence herbicide test; assay type: in vivo, Urochloa decumbens; conditions: for Surinam Grass plant response rating: postemergence, visual rating, scale 0 (no effect) to 100 (complete control)
In short: (§2)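 Pre: seeds sown, then sprayed. Post: 1–4-leaf plants (2–18 cm) sprayed at the same time. Paddy: flooded, treated at 2-leaf stage. Formulation: non-phytotoxic solvent with surfactant. Greenhouse 13–15 days; visual 0–100 score relative to controls.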

[3] = system: cocklebur; assay: Test B pre-/postemergence herbicide test; assay type: in vivo, Xanthium strumarium; conditions: for Cocklebur plant response rating: postemergence, visual rating, scale 0 (no effect) to 100 (complete control)
In short: as §1

[4] = system: corn; assay: Test B pre-/postemergence herbicide test; assay type: in vivo, Zea mays; conditions: for Corn plant response rating: postemergence, visual rating, scale 0 (no effect) to 100 (complete control)
In short: as §2

[5] = system: large crabgrass; assay: Test B pre-/postemergence herbicide test; assay type: in vivo, Digitaria sanguinalis; conditions: for Crabgrass, Large plant response rating: postemergence, visual rating, scale 0 (no effect) to 100 (complete control)
In short: as §2

[6] = system: giant foxtail; assay: Test B pre-/postemergence herbicide test; assay type: in vivo, Setaria faberi; conditions: for Foxtail, Giant plant response rating: postemergence, visual rating, scale 0 (no effect) to 100 (complete control)
In short: as §2

[7] = system: lambsquarters; assay: Test B pre-/postemergence herbicide test; assay type: in vivo, Chenopodium album; conditions: for Lambsquarters plant response rating: postemergence, visual rating, scale 0 (no effect) to 100 (complete control)
In short: as §2

[8] = system: morningglory; assay: Test B pre-/postemergence herbicide test; assay type: in vivo, Ipomoea coccinea; conditions: for Morningglory plant response rating: postemergence, visual rating, scale 0 (no effect) to 100 (complete control)
In short: as §1

[9] = system: pigweed; assay: Test B pre-/postemergence herbicide test; assay type: in vivo, Amaranthus retroflexus; conditions: for Pigweed plant response rating: postemergence, visual rating, scale 0 (no effect) to 100 (complete control)
In short: as §2

[10] = system: rice; assay: Test B pre-/postemergence herbicide test; assay type: in vivo, Oryza sativa; conditions: preemergence
In short: as §2

[11] = system: velvetleaf; assay: Test B pre-/postemergence herbicide test; assay type: in vivo, Abutilon theophrasti; conditions: for Velvetleaf plant response rating: postemergence, visual rating, scale 0 (no effect) to 100 (complete control)
In short: as §2

[12] = system: blackgrass; assay: Test B postemergence herbicide test; assay type: in vivo, Alopecurus myosuroides; conditions: postemergence, visual rating, scale 0 (no effect) to 100 (complete control)
In short: (§3)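 Formulated test chemicals went onto postemergence plants measuring 2 to 18 cm, at one to four leaves. For the paddy assay, species had reached two leaves. Scoring took place 13–15 days later by eye, relative to untreated plants, using 0 for no effect up to 100 for full control.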

[13] = system: wheat; assay: Test B postemergence herbicide test; assay type: in vivo, Triticum aestivum; set-up: key to Wheat plant response rating: 0 = no effect, 100 = complete control; conditions: postemergence, visual rating, scale 0 (no effect) to 100 (complete control)
In short: (§4)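 After treating 2-leaf paddy plants or 2–18 cm postemergence plants (1 to 4 leaves) with formulated chemical, researchers kept them in a greenhouse for 13–15 days. Effects were judged visually versus controls: 0 indicates none, 100 total control.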

[14] = system: wild oat; assay: Test B postemergence herbicide test; assay type: in vivo, Avena fatua; conditions: postemergence, visual rating, scale 0 (no effect) to 100 (complete control)
In short: as §4

[15] = system: rice; assay: Test B flooded paddy test; assay type: in vivo, Oryza sativa; conditions: 1000 g ai/ha, visual rating, scale 0 to 100 (0 no effect, 100 complete control), 13 to 15 days
In short: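 Plants grow to 1- to 4-leaf stage (2–18 cm) for postemergence spraying, or to 2-leaf stage for the paddy test. Formulated compound is applied. Greenhouse holding lasts 13–15 days. Response is scored visually relative to controls, 0 no effect to 100 complete control; a dash means no result.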

[16] = system: small flower umbrella sedge; assay: Test B flooded paddy test; assay type: in vivo, Cyperus difformis; conditions: 1000 g ai/ha, visual rating, scale 0 to 100 (0 no effect, 100 complete control), 13 to 15 days
In short: as §3

[17] = system: ducksalad; assay: Test B flooded paddy test; assay type: in vivo, Heteranthera limosa; conditions: 1000 g ai/ha, visual rating, scale 0 to 100 (0 no effect, 100 complete control), 13 to 15 days
In short: as §3

[18] = system: barnyardgrass; assay: Test B flooded paddy test; assay type: in vivo, Echinochloa crus-galli; conditions: 1000 g ai/ha, visual rating, scale 0 to 100 (0 no effect, 100 complete control), 13 to 15 days
In short: as §3

[19] = system: rice; assay: Test C flooded paddy test; assay type: in vivo, Oryza sativa
In short: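 Injury scored visually against controls on a 0 (no effect) to 100 (complete control) scale, 12 to 14 days after treatment in greenhouse. Flooded paddy plants treated at 2-leaf stage; postemergence plants at 1- to 4-leaf stage, 2 to 18 cm tall.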

[20] = system: smallflower umbrella sedge; assay: Test C flooded paddy test; assay type: in vivo, Cyperus difformis
[21] = system: ducksalad; assay: Test C flooded paddy test; assay type: in vivo, Heteranthera limosa
[22] = system: barnyardgrass; assay: Test C flooded paddy test; assay type: in vivo, Echinochloa crus-galli
In short: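 Weeds and wheat were sprayed after emergence, at a height of 2 to 18 cm (1–4 leaves), and paddy barnyardgrass was flooded and treated at two leaves. Assessment took place 12–14 days later in the greenhouse on a 0-to-100 visual control scale. A dash means no result was obtained.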

[23] = 125 g ai/ha, 0 = no effect, 100 = complete control, preemergence
[24] = 500 g ai/ha, visual rating 0-100, 0 no effect, 100 complete control, preemergence
[25] = 62 g ai/ha, scale 0 to 100 (0 no effect, 100 complete control)
[26] = 125 g ai/ha, scale 0 to 100 (0 no effect, 100 complete control)
[27] = 250 g ai/ha, scale of 0 to 100, 0 is no effect, 100 is complete control
[28] = 500 g ai/ha, visual rating after 12 to 14 days, scale 0 to 100 (0 no effect, 100 complete control)

CCNC(=O)c1cccc(NC(=O)c2cn(C(C)(C)C)nc2C)c1 [Compound 183]
50: Plant response rating, Surinam Grass [2, 24] | Cocklebur plant response rating ([3]; 125 g ai/ha) | Lambsquarters plant response rating (0 to 100 scale) [7, 23] | Plant response rating, Velvetleaf [11, 24] | Plant response rating, Sedge, Umbrella [20, 28]
60: Morningglory plant response rating ([8]; 125 g ai/ha) | Velvetleaf plant response rating ([11]; 500 g ai/ha) | Barnyardgrass plant response rating [18]
30: Crabgrass, Large plant response rating ([5]; 500 g ai/ha) | Foxtail, Giant plant response rating ([6]; 500 g ai/ha)
40: Velvetleaf plant response rating ([11]; 125 g ai/ha)
70: Plant response rating, Barnyardgrass [1, 24] | Lambsquarters plant response rating ([7]; 125 g ai/ha) | Morningglory plant response rating ([8]; 500 g ai/ha) | Pigweed plant response rating ([9]; 125 g ai/ha) | Ducksalad plant response rating [17]
90: Cocklebur plant response rating ([3]; 500 g ai/ha) | Plant response rating, Crabgrass, Large [5, 24]
20: Barnyardgrass plant response rating (0 to 100 scale) [1, 23] | Surinam Grass plant response rating (0 to 100 scale) [2, 23] | Surinam Grass plant response rating ([2]; 500 g ai/ha) | Corn plant response rating ([4]; 125 g ai/ha) | Corn plant response rating ([4]; 500 g ai/ha) | Crabgrass, Large plant response rating ([5]; 125 g ai/ha) | Foxtail, Giant plant response rating ([6]; 125 g ai/ha) | Oat, Wild plant response rating ([14]; 500 g ai/ha) | Plant response rating, Ducksalad [21, 28]
0: Barnyardgrass plant response rating ([1]; 125 g ai/ha) | Barnyardgrass plant response rating ([1]; 500 g ai/ha) | Surinam Grass plant response rating ([2]; 125 g ai/ha) | Cocklebur plant response rating (0 to 100 scale) [3, 23] | Plant response rating, Cocklebur [3, 24] | Corn plant response rating (0 to 100 scale) [4, 23] | Plant response rating, Corn [4, 24] | Foxtail, Giant plant response rating (0 to 100 scale) [6, 23] | Rice plant response rating (0 to 100 scale) ([10]; 125 g ai/ha, 0 = no effect, 100 = complete control) | Blackgrass plant response rating ([12]; 125 g ai/ha) | Wheat plant response rating ([13]; 125 g ai/ha) | Wheat plant response rating ([13]; 500 g ai/ha) | Rice plant response rating [15] | Rice plant response rating [19, 25] | Rice plant response rating [19, 26] | Rice plant response rating [19, 27] | Plant response rating, Rice [19, 28] | Sedge, Umbrella plant response rating [20, 25] | Sedge, Umbrella plant response rating [20, 26] | Ducksalad plant response rating [21, 25] | Ducksalad plant response rating [21, 26] | Barnyardgrass plant response rating [22, 25] | Barnyardgrass plant response rating ([22]; 125 g ai/ha, scale of 0 to 100, 0 is no effect, 100 is complete control) | Barnyardgrass plant response rating [22, 27] | Plant response rating, Barnyardgrass [22, 28]
10: Crabgrass, Large plant response rating (0 to 100 scale) [5, 23] | Morningglory plant response rating (0 to 100 scale) [8, 23] | Plant response rating, Morningglory [8, 24] | Velvetleaf plant response rating (0 to 100 scale) [11, 23] | Blackgrass plant response rating ([12]; 500 g ai/ha) | Oat, Wild plant response rating ([14]; 125 g ai/ha) | Sedge, Umbrella plant response rating [20, 27] | Ducksalad plant response rating [21, 27]
80: Plant response rating, Foxtail, Giant [6, 24] | Lambsquarters plant response rating ([7]; 500 g ai/ha) | Pigweed plant response rating ([9]; 500 g ai/ha) | Plant response rating, Rice ([10]; 500 g ai/ha, visual rating 0-100, 0 no effect, 100 complete control) | Sedge, Umbrella plant response rating [16]
100: Plant response rating, Lambsquarters [7, 24] | Pigweed plant response rating (0 to 100 scale) [9, 23] | Plant response rating, Pigweed [9, 24]
